Source: ChEMBL document CHEMBL1155644, “New marine cembrane-type diterpenoids from the Okinawan soft coral Clavularia koellikeri” (J Nat Prod, 2000)
In brackets after ≈: the same amount, converted by molar mass. Activity calls are given as the source filed them. The rule behind the calls is not given here.

Tests used:
Type in all cases: functional, cell-based
MOLT-4 [1] = assay: Cytotoxicity against human MOLT4 cells
DLD-1 [2] = assay: Cytotoxicity against human DLD1 cells
MOLT-4 [3] = assay: Cytotoxicity against human MOLT4 cells at 0.6 uM/mL
DLD-1 [4] = assay: Cytotoxicity against human DLD1 cells at 0.6 uM/mL

Structure (SMILES) | IC50 (MOLT-4 [1]) [µg/mL] | IC50 (DLD-1 [2]) [µg/mL] | Activity (MOLT-4 [3]) | Activity (DLD-1 [4])
C=C1C(=O)O[C@H]2/C=C(\C)C[C@H](OC(C)=O)/C=C(\C)C[C@H](OC(C)=O)/C=C(\C)C[C@H](OC(C)=O)[C@H]12 | 0.9 (≈ 1.9 µM) | 4.2 (≈ 8.85 µM) | Active | Active
C=C1C(=O)O[C@H]2/C=C(\C)C[C@H](OC(C)=O)/C=C(\C)CC/C=C(\C)C[C@H](O)[C@H]12 |  |  | Active | Active
